In US10555987B2, “GHRH agonists for the treatment of ischemic disorders” (UNIVERSITY OF MIAMI, priority 2012, dated 2020):
Non-standard residues stand in square brackets, D forms with d. Residues, ends and D or L forms follow the SMILES beside them. *: point of attachment. Desaminotyrosyl = O=C(CCc1ccc(O)cc1)*; Agmatine = N=C(N)NCCCCN*; Nle = CCCC[C@H](N)C(=O)O; Orn = NCCC[C@H](N)C(=O)O; Abu = CC[C@H](N)C(=O)O

Key:
GHRH receptor [1] = molecular target: T1, GHRH receptor (Homo sapiens, UniProt Q02643); experiment: GHRH receptor binding, competition with 125I-labeled JV-1-42, human pituitary membrane homogenates (Table 7); set-up: Normal human pituitaries were purchased from the National Hormone and Peptide Program; tissue National Hormone and Peptide Program (A.F. Parlow, Harbor-UCLA Medical Center, Torrance, Calif.); host or cells: normal human pituitary, membrane fraction
T1 sequence (Q02643 23-423): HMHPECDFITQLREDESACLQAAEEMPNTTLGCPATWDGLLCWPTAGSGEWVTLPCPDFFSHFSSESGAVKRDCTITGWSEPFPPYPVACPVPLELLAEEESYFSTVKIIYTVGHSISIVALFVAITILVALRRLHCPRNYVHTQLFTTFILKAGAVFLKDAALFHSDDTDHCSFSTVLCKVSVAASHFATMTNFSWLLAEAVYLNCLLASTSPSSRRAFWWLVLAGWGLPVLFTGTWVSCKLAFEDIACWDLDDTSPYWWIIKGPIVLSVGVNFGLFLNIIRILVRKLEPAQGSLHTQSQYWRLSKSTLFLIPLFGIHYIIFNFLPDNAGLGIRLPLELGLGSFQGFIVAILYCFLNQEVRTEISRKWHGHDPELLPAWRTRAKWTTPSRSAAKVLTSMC
Text: Normal human pituitaries were purchased from the National Hormone and Peptide Program (A.F. Parlow, Los Angeles, County Harbor-UCLA Medical Center, Torrance, Calif.).

[2] = tested on: myocardial infarction (Fisher-344 rats); experiment: Hemodynamic analysis (pressure-volume loops), body and heart weight after MI, compared to JI-38 (Example 15, Table 16); format: in vivo, rat; set-up: key to ESP (End-Systolic Pressure) / EDP (End-Diastolic Pressure) / ESV (End-Systolic Volume) / PRSW (Preload Recruitable Stroke Work) / Ees (End-systolic Elastance) / dP/dt max (peak rate of the pressure rise) / dP/dt max_EDV / dP/dt min / TAU (relaxation time constant calculated by Weiss method) / SV (Stroke Volume) / CO (Cardiac Output) / SW (Stroke Work) / EF / Ea/Ees / Ea (arterial Elastance): ↓: downward arrow denotes lower than JI-38; ↑: upward arrow denotes greater than JI-38; =denotes same as JI-38; ⬇⬇: double arrow denotes greater effect; ⬆⬆: double arrow denotes greater effect; details: rat MI model, s.c. twice daily; pressure-volume loops; expressed in comparison to JI-38
Protocol: Rats were anesthetized by intramuscular injection of a mixture of ketamine (100 mg/kg), xylazine (20 mg/kg) and acepromazine (10 mg/kg). A 2-F micromanometer tipped catheter (SPR-838, Millar Instruments, Houston, Tex.) was inserted into the right carotid artery and advanced retrograde into the left ventricle. Measurements were calibrated by injecting a hypertonic saline (15%) bolus to determine extra-ventricular conductance; relative volume units were converted to actual volume using the cuvette calibration method. All analyses were performed using PVAN 3.0 software (Millar Instruments, Houston, Tex.).
(§1) Myocardial infarction (MI) was induced by permanent ligation of the left coronary artery in female 6-month-old Fisher-344 rats. Following experimental myocardial infarction (MI), rats were randomly assigned to receive either placebo, JI-38, or one of the following new analogs of GHRH: MR-30 l(P-21301), MR-303(P-21303), MR-356(P-20356), MR-502(25502), MR-350(P-20350), MR-36 l(P-20361), MR-367(P-20367), MR-403(P-27403), MR-404(P-27404), and MR-409(P-27409) (10 rats per each group). The GHRH peptide agonists were adminsistered starting 2 hours post-surgery, 1 week, 2 week, and 4 week intervals. All treatment was given subcutaneously twice daily. Cardiac performance was assessed by serial echocardiography and hemodynamic analysis derived from pressure-volume loops as described before.
The hemodynamic studies are shown in FIGS. 16-33 and the results are summarized in Table 16 (results were expressed in comparison to JI-38; downward arrow denotes lower than JI-38; upward arrow denotes greater than JI-38; =denotes same as JI-38; and double arrow denotes greater effect).

[3] = tested on: myocardial infarction (Fisher-344 rats); experiment: Serial echocardiography after MI, compared to JI-38 (Example 15, Table 15); format: in vivo, rat; set-up: key to LVEDD: Left Ventricular End Diastolic Diameter / LVESD: Left Ventricular End Systolic Diameter / VD: Ventricular Diastole / VS: Ventricular Systole / EF: Ejection Fraction / FS: Fraction Shortening: ↓: downward arrow denotes lower than JI-38; ↑: upward arrow denotes greater than JI-38; =denotes same as JI-38; ⬇⬇: double arrow denotes greater effect; ⬆⬆: double arrow denotes greater effect; details: in comparison to JI-38
Protocol: Echocardiographic measurements were obtained at baseline, 2 days, 1, 2 and 4 weeks. Echocardiographic assessments were performed in anesthetized rats (2% isoflurane inhalation) using a Vevo-770 echocardiogram (Visual Sonics Inc., Toronto, Ontario, Canada) equipped with a 17.5-MHz transducer. Cardiac dimensions: LV end diastolic (LVEDD), end systolic (LVESD) diameters and fractional shortening (FS) were recorded from M-mode images using averaged measurements from 3 to 5 consecutive cardiac cycles according to the American Society of Echocardiography. Ejection fraction (EF) was calculated from bi-dimensional long-axis parasternal views taken through the infarcted area. All images were analyzed using Vevo 770 3.0.0 software (Visual Sonics Inc., Toronto, Ontario, Canada).
as §1
The echocardiographic experiments are shown in FIGS. 10-15 and the results are summarized in Table 15 (results were expressed in comparison to JI-38; downward arrow denotes lower than JI-38; upward arrow denotes greater than JI-38; =denotes same as JI-38; and double arrow denotes greater effect).

GHRH receptor [4] = molecular target: T1, GHRH receptor; experiment: GHRH receptor binding, competition with 125I-labeled JV-1-42, human pituitary membrane homogenates (Table 5); set-up: Normal human pituitaries were purchased from the National Hormone and Peptide Program; tissue National Hormone and Peptide Program (A.F. Parlow, Harbor-UCLA Medical Center, Torrance, Calif.); host or cells: normal human pituitary, membrane fraction
Protocol: Normal human pituitaries were purchased from the National Hormone and Peptide Program (A.F. Parlow, Los Angeles, County Harbor-UCLA Medical Center, Torrance, Calif.). Briefly, in competitive binding analysis, ^125I-labeled JV-1-42 ([…]) was displaced by GHRH agonists at 10^−6 to 10^−12 M.
The final binding affinities were expressed as IC50 values and were calculated by using the LIGAND PC computerized curve-fitting program of Munson and Rodbard as modified by McPherson.

GH release = experiment: In vivo endocrine activity, GH release after subcutaneous administration (Table 9); details: rat; for GH releasing potency relative to JI-38 (=1): subcutaneous (s.c.) injection
Protocol: Subcutaneous Administration. Adult male rats were used and anesthetized with pentobarbital (6 mg/100 g, b.w.), by i.p. injection. […] Blood samples were taken from the jugular vein 5, 15 and/or 30 minutes after the injection. The blood samples were centrifuged, plasma was removed and the GH level was measured byELISA. The results are summarized in terms of potency in Table 9.

For `CCCC[C@H](NC(=O)[C@@H](NC(=O)[C@H](CC(=O)O)NC(=O)[C@H](CCC(N)=O)NC(=O)[C@H](CC(C)C)NC(=O)[C@H](CC(C)C)NC(=O)[C@H](CCCN)NC(=O)[C@H](CCCNC(=N)N)NC(=O)[C@H](C)NC(=O)[C@H](CO)NC(=O)[C@H](CC(C)C)NC(=O)[C@H](CCC(N)=O)NC(=O)[C@H](CC)NC(=O)[C@H](CC(C)C)NC(=O)[C@@H](NC(=O)[C@H](CCCN)NC(=O)[C@H](CCCNC(=N)N)NC(=O)[C@H](Cc1ccc(O)cc1)NC(=O)[C@H](CO)NC(=O)[C@H](CCC(N)=O)NC(=O)[C@@H](NC(=O)[C@H](Cc1ccccc1)NC(=O)[C@@H](NC(=O)[C@H](C)NC(=O)[C@H](CC(=O)O)NC(=O)[C@@H](C)NC(=O)CCc1ccc(O)cc1)[C@@H](C)CC)[C@@H](C)O)C(C)C)[C@@H](C)CC)C(=O)N[C@@H](CC(=O)O)C(=O)NCCCCNC(=N)N` [Peptide P-20350, [Dat^1, D-Ala^2, Gln^8, Orn^12, Abu^15, Orn^21, Nle^27, Asp^28, Agm^29]hGHRH(1-29) NH2] (Desaminotyrosyl-[dA]DAIFTQSYR[Orn]VL[Abu]QLSAR[Orn]LLQDI[Nle]D-Agmatine), the IC50 (GHRH receptor [1]; 125I-JV-1-42, human pituitary membranes, Table 7) was 0.52 nM, the “Relative affinity (Binding potency) vs JI-38” value (GHRH receptor [1]; JI-38 = 1, Table 7) was 8.37 and the “CO (Cardiac Output)” value [2] was “↑”. For the same compound, the “EDP (End-Diastolic Pressure)” value [2] was “↑”, the EF [2] was “↑” and the “ESP (End-Systolic Pressure)” value [2] was “↑”. For the same compound, the “ESV (End-Systolic Volume)” value [2] was “=”, the “Ea (arterial Elastance)” value [2] was “=” and the Ea/Ees [2] was “=”. The “Ees (End-systolic Elastance)” value [2] was “=”, the “PRSW (Preload Recruitable Stroke Work)” value [2] was “=” and the “SV (Stroke Volume)” value [2] was “=”. The “SW (Stroke Work)” value [2] was “↓”, the “TAU (relaxation time constant calculated by Weiss method)” value [2] was “=” and the “dP/dt max (peak rate of the pressure rise)” value [2] was “=”. The “dP/dt max_EDV” value [2] was “=”, the dP/dt min [2] was “=” and the “EF: Ejection Fraction” value [3] was “=”. The “FS: Fraction Shortening” value [3] was “=”, the “LVEDD: Left Ventricular End Diastolic Diameter” value [3] was “↓” and the “LVESD: Left Ventricular End Systolic Diameter” value [3] was “=”. The “VD: Ventricular Diastole” value [3] was “=”, the “VS: Ventricular Systole” value [3] was “=” and the IC50 (GHRH receptor [4]; 125I-JV-1-42, human pituitary membranes, Table 5) was 0.04 nM. The “Relative affinity (Binding potency) vs GHRH” value (GHRH receptor [4]; GHRH(1-29) = 1, Table 5) was 101.5, the “Relative affinity (Binding potency) vs JI-38” value (GHRH receptor [4]; JI-38 = 1, Table 5) was 42.7 and the “Stimulation of growth hormone levels after subcutaneous administration (in words)” value (GH release; s.c.) was “stimulated greater growth hormone levels than hGHRH or JI-38”. The “GH releasing potency relative to JI-38 (=1)” value (GH release; 15 min after) was 1.53 and the “GH releasing potency relative to JI-38 (=1)” value (GH release; 30 min after) was 1.17.
